In patent US11208412B2 (DAEGU-GYEONGBUK MEDICAL INNOVATION FOUNDATION, priority 2017, dated 2021):

Legend:
Experiment in all cases: Kinase selectivity, DiscoverX scanMAX Kinase assay panel (% control)
Type in all cases: binding
[1] = molecular target: T1, kinases of the scanMAX Kinase assay panel (Homo sapiens, UniProt O00750); details: PIK3C2B; 1 uM
T1 construct: purchased DiscoverX Co. (contract measurement) scanMAX Kinase assay panel
Outline: (§1)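 Percent of control computed as (compound − positive control)/(negative control − positive control) × 100, DMSO defining 100% and positive control 0%. Each panel kinase exposed to 1 uM compound; values under 35% taken to mean the compound acts on that kinase.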

[2] = molecular target: T2, kinases of the scanMAX Kinase assay panel (Homo sapiens, UniProt O75460); details: ERN1; 1 uM
T2 construct: purchased DiscoverX Co. (contract measurement) scanMAX Kinase assay panel
Outline: as §1

[3] = molecular target: T3, kinases of the scanMAX Kinase assay panel (Homo sapiens, UniProt P07949, M918T); details: kinase RET(M918T); 1 uM in DMSO
T3 construct: purchased DiscoverX Co. (contract measurement) scanMAX Kinase assay panel
Outline: as §1

[4] = molecular target: T4, kinases of the scanMAX Kinase assay panel (Homo sapiens, UniProt P15056); details: BRAF; 1 uM
T4 construct: purchased DiscoverX Co. (contract measurement) scanMAX Kinase assay panel
Outline: as §1

[5] = molecular target: T5, kinases of the scanMAX Kinase assay panel (Homo sapiens, UniProt P29376); details: LTK; 1 uM
T5 construct: purchased DiscoverX Co. (contract measurement) scanMAX Kinase assay panel
Outline: as §1

[6] = molecular target: T6, kinases of the scanMAX Kinase assay panel (Homo sapiens, UniProt P54764); details: EPHA4; 1 uM
T6 construct: purchased DiscoverX Co. (contract measurement) scanMAX Kinase assay panel
Outline: as §1

[7] = molecular target: T7, kinases of the scanMAX Kinase assay panel (Homo sapiens, UniProt Q09013); details: DMPK; 1 uM
T7 construct: purchased DiscoverX Co. (contract measurement) scanMAX Kinase assay panel
T7 sequence (Q09013 1-629): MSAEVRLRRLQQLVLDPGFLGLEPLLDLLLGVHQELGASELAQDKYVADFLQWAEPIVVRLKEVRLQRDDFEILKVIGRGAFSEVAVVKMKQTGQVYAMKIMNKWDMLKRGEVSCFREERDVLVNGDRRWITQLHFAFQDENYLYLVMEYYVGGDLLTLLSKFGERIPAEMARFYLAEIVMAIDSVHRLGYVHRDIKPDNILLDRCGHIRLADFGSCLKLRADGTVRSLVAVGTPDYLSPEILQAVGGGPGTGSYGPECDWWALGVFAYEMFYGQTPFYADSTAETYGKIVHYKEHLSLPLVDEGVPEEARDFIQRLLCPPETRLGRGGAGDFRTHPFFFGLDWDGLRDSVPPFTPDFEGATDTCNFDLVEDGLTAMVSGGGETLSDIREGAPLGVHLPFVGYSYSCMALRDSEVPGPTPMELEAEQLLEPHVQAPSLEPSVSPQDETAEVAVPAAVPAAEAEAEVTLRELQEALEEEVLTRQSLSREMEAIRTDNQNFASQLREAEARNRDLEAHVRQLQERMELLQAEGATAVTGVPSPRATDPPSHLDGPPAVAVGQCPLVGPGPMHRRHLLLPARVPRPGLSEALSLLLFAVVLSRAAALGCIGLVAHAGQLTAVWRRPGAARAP
Outline: as §1

[8] = molecular target: T8, kinases of the scanMAX Kinase assay panel (Homo sapiens, UniProt Q13188); details: MST2; 1 uM
T8 construct: purchased DiscoverX Co. (contract measurement) scanMAX Kinase assay panel
T8 sequence (Q13188 1-491): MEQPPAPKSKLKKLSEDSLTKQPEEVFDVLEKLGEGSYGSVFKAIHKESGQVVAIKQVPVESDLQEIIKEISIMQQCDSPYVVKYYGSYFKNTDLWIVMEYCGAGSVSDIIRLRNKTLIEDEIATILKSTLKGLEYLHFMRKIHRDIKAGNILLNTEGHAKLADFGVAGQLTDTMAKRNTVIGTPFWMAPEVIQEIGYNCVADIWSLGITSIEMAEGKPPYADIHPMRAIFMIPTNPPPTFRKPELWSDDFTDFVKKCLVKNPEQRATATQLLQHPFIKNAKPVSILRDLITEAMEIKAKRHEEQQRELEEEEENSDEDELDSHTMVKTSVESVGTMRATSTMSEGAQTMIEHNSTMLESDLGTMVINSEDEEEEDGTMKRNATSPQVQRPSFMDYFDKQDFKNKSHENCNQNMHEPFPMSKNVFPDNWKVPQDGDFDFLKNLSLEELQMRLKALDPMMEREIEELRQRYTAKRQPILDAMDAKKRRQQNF
Outline: as §1

[9] = molecular target: T9, kinases of the scanMAX Kinase assay panel (Homo sapiens, UniProt Q5S007, G2019S); details: LRRK2(G2019S); 1 uM
T9 construct: purchased DiscoverX Co. (contract measurement) scanMAX Kinase assay panel
Outline: as §1

[10] = molecular target: T10, kinases of the scanMAX Kinase assay panel (Homo sapiens, UniProt Q8TDX7); details: NEK7; 1 uM
T10 construct: purchased DiscoverX Co. (contract measurement) scanMAX Kinase assay panel
Outline: as §1

[11] = molecular target: T11, kinases of the scanMAX Kinase assay panel (Homo sapiens, UniProt Q96D53); details: ADCK4; 1 uM
T11 construct: purchased DiscoverX Co. (contract measurement) scanMAX Kinase assay panel
T11 sequence (Q96D53 1-544): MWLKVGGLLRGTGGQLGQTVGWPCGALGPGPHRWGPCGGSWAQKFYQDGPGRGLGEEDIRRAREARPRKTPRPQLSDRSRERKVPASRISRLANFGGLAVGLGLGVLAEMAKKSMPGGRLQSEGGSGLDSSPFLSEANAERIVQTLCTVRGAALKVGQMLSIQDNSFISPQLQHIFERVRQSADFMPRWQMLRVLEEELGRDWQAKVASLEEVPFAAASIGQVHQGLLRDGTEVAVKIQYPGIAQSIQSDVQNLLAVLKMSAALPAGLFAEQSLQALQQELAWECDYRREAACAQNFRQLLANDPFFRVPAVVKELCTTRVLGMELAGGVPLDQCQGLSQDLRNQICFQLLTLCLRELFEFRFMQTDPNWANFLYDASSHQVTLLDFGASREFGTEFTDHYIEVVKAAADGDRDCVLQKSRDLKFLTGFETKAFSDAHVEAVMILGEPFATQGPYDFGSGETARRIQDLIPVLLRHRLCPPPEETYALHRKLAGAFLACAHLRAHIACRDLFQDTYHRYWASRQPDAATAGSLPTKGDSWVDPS
Outline: as §1

[12] = molecular target: T12, kinases of the scanMAX Kinase assay panel (Homo sapiens, UniProt Q9UQM7); details: CAMK2A; 1 uM
T12 construct: purchased DiscoverX Co. (contract measurement) scanMAX Kinase assay panel
Outline: as §1

T12 sequence (Q9UQM7 whole entry): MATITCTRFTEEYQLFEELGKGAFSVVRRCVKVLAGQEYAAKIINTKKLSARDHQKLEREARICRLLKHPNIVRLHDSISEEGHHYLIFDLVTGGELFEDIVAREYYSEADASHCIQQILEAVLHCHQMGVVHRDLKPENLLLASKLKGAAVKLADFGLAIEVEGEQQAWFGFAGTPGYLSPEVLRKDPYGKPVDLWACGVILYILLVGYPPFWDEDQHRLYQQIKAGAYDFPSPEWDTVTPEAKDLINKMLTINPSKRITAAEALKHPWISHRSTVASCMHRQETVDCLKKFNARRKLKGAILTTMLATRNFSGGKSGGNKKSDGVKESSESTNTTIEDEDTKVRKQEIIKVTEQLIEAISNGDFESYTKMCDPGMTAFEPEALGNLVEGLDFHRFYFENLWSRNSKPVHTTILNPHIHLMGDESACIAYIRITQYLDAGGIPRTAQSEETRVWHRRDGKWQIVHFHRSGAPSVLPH
T1 sequence (O00750 whole entry): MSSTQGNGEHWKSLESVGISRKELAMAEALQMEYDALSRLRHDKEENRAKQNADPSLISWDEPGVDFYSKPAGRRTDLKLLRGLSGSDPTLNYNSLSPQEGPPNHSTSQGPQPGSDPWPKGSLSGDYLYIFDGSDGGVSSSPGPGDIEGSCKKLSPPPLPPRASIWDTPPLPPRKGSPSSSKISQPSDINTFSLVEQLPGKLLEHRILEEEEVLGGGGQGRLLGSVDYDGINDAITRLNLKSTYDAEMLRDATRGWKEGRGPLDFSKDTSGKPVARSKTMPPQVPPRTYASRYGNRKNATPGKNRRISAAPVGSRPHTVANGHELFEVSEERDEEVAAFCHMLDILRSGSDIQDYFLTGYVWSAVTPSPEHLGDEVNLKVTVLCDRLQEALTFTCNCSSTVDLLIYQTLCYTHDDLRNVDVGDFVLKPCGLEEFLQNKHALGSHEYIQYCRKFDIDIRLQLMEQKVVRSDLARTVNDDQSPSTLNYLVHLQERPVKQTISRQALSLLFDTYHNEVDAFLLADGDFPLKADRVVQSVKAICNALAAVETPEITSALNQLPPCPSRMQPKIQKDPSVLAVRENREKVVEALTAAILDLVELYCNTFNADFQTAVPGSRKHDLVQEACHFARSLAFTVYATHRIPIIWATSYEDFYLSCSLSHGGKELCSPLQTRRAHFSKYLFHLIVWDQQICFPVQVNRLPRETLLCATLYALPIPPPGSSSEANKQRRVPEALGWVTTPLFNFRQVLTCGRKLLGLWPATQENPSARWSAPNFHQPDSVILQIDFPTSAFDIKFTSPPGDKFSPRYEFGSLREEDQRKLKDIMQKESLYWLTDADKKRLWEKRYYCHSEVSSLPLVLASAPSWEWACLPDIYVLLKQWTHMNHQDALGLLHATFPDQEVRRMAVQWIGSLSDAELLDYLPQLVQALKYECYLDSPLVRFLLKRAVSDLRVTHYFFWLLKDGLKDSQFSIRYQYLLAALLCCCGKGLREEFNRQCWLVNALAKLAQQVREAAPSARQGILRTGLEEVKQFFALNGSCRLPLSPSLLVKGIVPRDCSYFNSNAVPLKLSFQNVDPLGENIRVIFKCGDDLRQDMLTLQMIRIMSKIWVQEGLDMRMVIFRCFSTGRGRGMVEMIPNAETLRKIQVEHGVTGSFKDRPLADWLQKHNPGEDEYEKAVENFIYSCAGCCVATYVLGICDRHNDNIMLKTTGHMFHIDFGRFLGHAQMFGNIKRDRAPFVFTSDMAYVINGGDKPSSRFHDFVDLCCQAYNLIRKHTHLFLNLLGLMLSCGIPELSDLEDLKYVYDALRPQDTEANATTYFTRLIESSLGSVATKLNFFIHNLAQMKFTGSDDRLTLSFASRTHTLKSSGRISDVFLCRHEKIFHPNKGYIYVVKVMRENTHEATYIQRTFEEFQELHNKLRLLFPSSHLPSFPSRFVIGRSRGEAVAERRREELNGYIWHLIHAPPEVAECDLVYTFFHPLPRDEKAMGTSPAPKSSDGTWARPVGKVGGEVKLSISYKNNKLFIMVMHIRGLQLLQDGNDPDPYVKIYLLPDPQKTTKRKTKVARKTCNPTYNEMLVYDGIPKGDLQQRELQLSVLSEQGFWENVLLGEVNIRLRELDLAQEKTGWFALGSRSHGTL
T9 sequence (Q5S007 whole entry G2019S): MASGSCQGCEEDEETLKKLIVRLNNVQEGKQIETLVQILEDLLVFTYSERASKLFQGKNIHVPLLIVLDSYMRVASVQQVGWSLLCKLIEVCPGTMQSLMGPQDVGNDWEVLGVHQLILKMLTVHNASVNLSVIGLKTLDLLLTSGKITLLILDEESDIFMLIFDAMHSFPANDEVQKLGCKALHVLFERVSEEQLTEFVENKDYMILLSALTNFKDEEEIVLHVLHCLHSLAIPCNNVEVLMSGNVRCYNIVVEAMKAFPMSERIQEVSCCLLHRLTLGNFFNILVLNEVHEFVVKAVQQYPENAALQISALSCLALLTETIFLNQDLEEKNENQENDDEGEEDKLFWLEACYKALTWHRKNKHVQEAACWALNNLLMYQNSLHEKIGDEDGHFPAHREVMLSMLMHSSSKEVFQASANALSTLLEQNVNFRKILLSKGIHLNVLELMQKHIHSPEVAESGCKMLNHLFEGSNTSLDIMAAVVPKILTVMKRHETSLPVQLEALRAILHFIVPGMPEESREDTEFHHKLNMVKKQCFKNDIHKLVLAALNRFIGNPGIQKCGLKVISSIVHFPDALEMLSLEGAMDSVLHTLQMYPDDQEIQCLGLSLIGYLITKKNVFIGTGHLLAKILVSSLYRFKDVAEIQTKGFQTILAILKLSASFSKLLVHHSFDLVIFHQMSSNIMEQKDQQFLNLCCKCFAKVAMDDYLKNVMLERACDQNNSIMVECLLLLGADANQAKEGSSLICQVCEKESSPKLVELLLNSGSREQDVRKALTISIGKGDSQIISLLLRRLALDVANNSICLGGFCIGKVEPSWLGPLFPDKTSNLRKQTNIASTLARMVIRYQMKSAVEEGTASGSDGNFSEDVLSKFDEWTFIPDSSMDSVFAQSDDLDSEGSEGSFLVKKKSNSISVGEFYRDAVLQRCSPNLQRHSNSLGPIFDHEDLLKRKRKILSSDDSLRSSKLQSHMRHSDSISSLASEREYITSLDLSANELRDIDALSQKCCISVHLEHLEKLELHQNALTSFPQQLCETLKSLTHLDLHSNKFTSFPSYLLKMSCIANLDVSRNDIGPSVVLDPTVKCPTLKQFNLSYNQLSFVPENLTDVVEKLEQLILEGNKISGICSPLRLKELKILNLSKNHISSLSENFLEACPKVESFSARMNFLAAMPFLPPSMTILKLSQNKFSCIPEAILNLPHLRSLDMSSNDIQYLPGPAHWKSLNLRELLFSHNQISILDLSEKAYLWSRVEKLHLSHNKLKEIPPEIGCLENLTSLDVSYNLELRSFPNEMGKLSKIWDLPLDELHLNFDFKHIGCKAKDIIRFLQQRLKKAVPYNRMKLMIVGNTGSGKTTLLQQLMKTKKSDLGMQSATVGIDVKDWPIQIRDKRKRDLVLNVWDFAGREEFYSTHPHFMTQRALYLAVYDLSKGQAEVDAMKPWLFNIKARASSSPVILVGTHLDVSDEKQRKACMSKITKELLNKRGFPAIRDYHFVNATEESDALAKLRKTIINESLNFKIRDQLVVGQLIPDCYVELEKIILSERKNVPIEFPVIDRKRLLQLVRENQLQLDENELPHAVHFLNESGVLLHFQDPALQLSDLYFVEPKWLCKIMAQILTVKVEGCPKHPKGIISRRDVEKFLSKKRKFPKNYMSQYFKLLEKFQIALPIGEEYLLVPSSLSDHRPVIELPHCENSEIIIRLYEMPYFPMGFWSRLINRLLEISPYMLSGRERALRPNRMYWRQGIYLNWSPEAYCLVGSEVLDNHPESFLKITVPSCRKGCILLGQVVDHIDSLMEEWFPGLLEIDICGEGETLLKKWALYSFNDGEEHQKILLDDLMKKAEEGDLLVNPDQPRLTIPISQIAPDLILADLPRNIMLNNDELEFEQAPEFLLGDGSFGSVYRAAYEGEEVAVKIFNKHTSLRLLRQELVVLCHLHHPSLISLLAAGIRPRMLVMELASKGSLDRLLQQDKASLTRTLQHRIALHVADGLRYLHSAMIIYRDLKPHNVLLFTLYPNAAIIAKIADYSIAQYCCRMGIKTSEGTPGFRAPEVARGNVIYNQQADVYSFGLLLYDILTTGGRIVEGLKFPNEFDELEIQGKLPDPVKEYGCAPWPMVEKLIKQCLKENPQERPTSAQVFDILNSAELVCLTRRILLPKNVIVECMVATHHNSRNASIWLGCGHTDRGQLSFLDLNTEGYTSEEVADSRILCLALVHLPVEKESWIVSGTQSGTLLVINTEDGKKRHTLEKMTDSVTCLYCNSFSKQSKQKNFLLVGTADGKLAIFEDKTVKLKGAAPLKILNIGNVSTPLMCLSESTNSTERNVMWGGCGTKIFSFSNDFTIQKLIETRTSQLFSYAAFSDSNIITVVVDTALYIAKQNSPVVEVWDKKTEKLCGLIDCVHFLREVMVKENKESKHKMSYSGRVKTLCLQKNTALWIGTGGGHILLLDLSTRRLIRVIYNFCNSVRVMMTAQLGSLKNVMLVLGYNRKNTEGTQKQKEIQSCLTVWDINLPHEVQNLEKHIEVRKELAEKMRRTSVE
T10 sequence (Q8TDX7 whole entry): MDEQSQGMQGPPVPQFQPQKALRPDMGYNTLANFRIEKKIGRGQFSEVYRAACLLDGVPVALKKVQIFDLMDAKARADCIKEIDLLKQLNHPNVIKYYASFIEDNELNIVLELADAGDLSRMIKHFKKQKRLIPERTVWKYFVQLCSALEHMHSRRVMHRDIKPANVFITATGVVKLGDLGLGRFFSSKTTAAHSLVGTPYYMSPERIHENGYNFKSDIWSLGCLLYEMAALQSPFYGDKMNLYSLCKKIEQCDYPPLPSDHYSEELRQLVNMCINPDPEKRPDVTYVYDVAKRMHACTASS

Row | Structure (SMILES) | remaining binding at 1 µM [1] | remaining binding at 1 µM [2] | remaining binding at 1 µM [3] | remaining binding at 1 µM [4] | remaining binding at 1 µM [5] | remaining binding at 1 µM [6] | remaining binding at 1 µM [7] | remaining binding at 1 µM [8] | remaining binding at 1 µM [9] | remaining binding at 1 µM [10] | remaining binding at 1 µM [11] | remaining binding at 1 µM [12]
1 | CC1(Nc2nc(Nc3cnn([C@H]4CCN(C5COC5)C[C@@H]4F)c3Cl)nc3[nH]cc(C#N)c23)CC1 [Example 52, 2-((5-chloro-1-((3S,4S)-3-fluoro-1-(oxetane-3-yl)piperidine-4-yl)-1H-pyrazole-4-yl)amino)((1-methylcyclopropyl)amino)-7H-pyrrolo[2,3-d]pyrimidine-5-carbonitrile] | 91% | 28% | 0% | 99% | 3.4% | 75% | 3.4% | 15% | 2.6% | 97% | 76% | 28%
2 | CNc1nc(Nc2ccc(C(=O)N3CCOCC3)cc2OC)nc2[nH]cc(C#N)c12 [Example 1, 2-((2-methoxy-4-(morpholine-4-carbonyl)phenyl)amino)-4-(methylamino)-7H-pyrrolo[2,3-d]pyrimidine-5-carbonitrile] | 89% | 57% | 94% | 69% | 6.8% | 93% | 100% | 92% | 0% | 100% | 100% | 60%
3 | CCNc1nc(Nc2ccc(C(=O)N3CCC(N4CCOCC4)CC3)cc2OC)nc2[nH]cc(C(F)(F)F)c12 [Example 104, (4-((4-(ethylamino)-5-(trifluoromethyl)-7H-pyrrolo[2,3-d]pyrimidine-2-yl)amino)-3-methoxyphenyl)(4-morpholinopiperidine-1-yl)methanone] | 75% | 83% | 96% | 100% | 3.7% | 100% | 100% | 71% | 2% | 94% | 100% | 39%
